Patent publication US8455240B2, “Use of thermophilic sulphate-reducing archaea for the implementation of a process for the degradation of hydrocarbons” (Institut de Recherche pour le Development (I.R.D.), priority 2005, dated 2013)
“And” between values parts separate entries of the source, which are not always exact repeats. Equal entries are not always repeated.

What was measured:
strain L-3 [1] = assay: Sources of carbon and energy used by the strain L-3; assay type: cell-based, Archaeoglobus fulgidus CNCM I-3465 (strain L-3); conditions: for OD 580 nm Final / OD 580 nm Initial / H2S (480 nm): thiosulphate as electron acceptor
Procedure: (§1) Experimentally, 4 ml of Cord-Ruwish reagent comprising 50 mmol/l of HCl and 5 mmol/l of CuSO4 are added to 0.1 ml of sample. Copper sulphate (CuSO4) by reacting with hydrogen sulphide (H2S), forms a copper sulphide precipitate (CuS) after the reaction: CuSO4+H2S→CuS+H2SO4
(§2) According to this method, the CuS is assayed by spectrophotometry at 480 nm. The readings are carried out against a blank constituted by 4 ml of Cord-Ruwish reagent.
(§3) The analysis and quantification of the metabolites are carried out by HPLC by measuring the disappearance of the substrate and the appearance of different metabolism products.
The study of the growth of the strain L-3 in the presence of different sources of carbon and energy was carried out with thiosulphate as an electron acceptor. The monitoring was carried out by estimation of the cell biomass (OD 580 nm), by assay of the sulphide production (Cord-Ruwish). The results were confirmed by HPLC analyses, and completed in certain cases by a CO2 assay.

strain L-3 [2] = assay: Screening for hydrocarbon degradation, strain L-3 (sulphide production, Cord-Ruwish); assay type: cell-based, Archaeoglobus fulgidus CNCM I-3465 (strain L-3); conditions: for sulphide production (OD 480) 0 d: aromatics solubilized in HMN
Procedure: as §1, §2
(§4) The study of the hydrocarbon degradation abilities is an experiment which requires a particularly long incubation. Thus, it was carried out in Bellco tubes sealed with thick rubber stoppers.
(§5) For these experiments, tubes containing 10 ml of culture medium without substrate, are 10% inoculated, then the hydrocarbon is introduced by injection through the stopper.
(§6) The hydrocarbons chosen are model molecules belonging to the different classes of hydrocarbons, namely: • hexadecane (CH3(CH2)14CH3, C16), a saturated linear aliphatic hydrocarbon; • hexadecene (CH3(CH2)13CHCH2, C16:1), an unsaturated linear aliphatic hydrocarbon of biogenic origin; • dibenzothiophene (DBT, C12H8S), a sulphur-containing aromatic hydrocarbon.
(§7) The aliphatic hydrocarbons (C16; C16:1) are added to the corresponding tubes, at a rate of 0.04 ml/10 ml of culture medium. The aromatic hydrocarbons (DBT) are solubilized in 2,2,4,4,6,8,8-heptamethylnonane (HMN, C16H34) at a rate of 20 mg/ml of HMN, and 0.75 ml of this solution is injected into 10 ml of culture medium.
(§8) 3 tubes were produced for each test and control. The growth of the strains was monitored indirectly by the production of sulphide.
(§9) A subculture was carried out starting from the preceding experiment on naphthalene, DBT solubilized as previously in HMN, and on HMN alone, for the two strains studied.

Archaeoglobus fulgidus = assay: Screening for hydrocarbon degradation, A. fulgidus (sulphide production, Cord-Ruwish); assay type: cell-based; conditions: for sulphide production (OD 480) 0 d: aromatics solubilized in HMN; for ΔS tf-ti: final minus initial sulphide
Procedure: as §1, §2, §4, §5, §6, §7, §8, §9

strain L-3 [3] = assay: Degradation of different substrates by the strain L-3 as a function of the electron acceptor; assay type: cell-based, Archaeoglobus fulgidus CNCM I-3465 (strain L-3); design: total H2S: unit not given here; conditions: for ability of the strain L-3 to degrade the substrate: thiosulphate or sulphate as electron acceptor
Procedure: as §1, §2, §3
(§10) The study of the degradation abilities of different substrates of the strain L-3 was based on a comparison with the collection strain, Archaeoglobus fulgidus (DSM 4304). The degradation of the substrates, by the two strains was monitored by a measurement of the cell biomass at 580 nm, a sulphide assay produced according to the Cord-Ruwish method, a study of the degradation metabolites by HPLC, completed by a CO2 assay with a GPC-Katharometer.
(§11) Two series of tests were prepared, one with thiosulphate, the other with sulphate as an electron acceptor.

[4] = tested on: Archaeoglobus fulgidus (DSM 4304); assay: Degradation of different substrates by A. fulgidus as a function of the electron acceptor; assay type: cell-based; conditions: for ability of Archaeoglobus fulgidus to oxidize the substrate: thiosulphate or sulphate as electron acceptor
Procedure: as §1, §2, §3, §10, §11

A. fulgidus = assay: Subculture on hydrocarbons, A. fulgidus (sulphide production); assay type: cell-based, Archaeoglobus fulgidus
Procedure: as §1, §2, §9
(§12) For this subculture, apart from the tests containing the hydrocarbon (DBT, naphthalene (Naph), […]), and seeded with the previously chosen inoculum, abiotic controls (negative controls) containing the substrate (hydrocarbon) but not inoculated were produced for the purpose of quantifying the sulphide production which could be due to chemical reactions between the different constituents of the medium. In these controls there was no development in the concentration of sulphide over a period of 20 days (Table 4).

strain L-3 [5] = assay: Subculture on hydrocarbons, strain L-3 (sulphide production); assay type: cell-based, Archaeoglobus fulgidus CNCM I-3465 (strain L-3)
Procedure: as §1, §2, §9, §12

[6] = thiosulphate as electron acceptor
[7] = sulphate as electron acceptor, unit from b116
[8] = thiosulphate as electron acceptor, unit from b116
[9] = choice of the inoculum for the subculture, tubes of the screening

SMILES | OD 580 nm Final (strain L-3 [1]) | OD 580 nm Initial (strain L-3 [1]) | H2S (480 nm) (strain L-3 [1]; unit from b126) | final OD 580 (strain L-3 [3]; sulphate as electron acceptor) | initial OD 580 (strain L-3 [3]; sulphate as electron acceptor) | total H2S (strain L-3 [3]; sulphate as electron acceptor) | final OD 580 (strain L-3 [3]; [6]) | initial OD 580 (strain L-3 [3]; [6]) | total H2S (strain L-3 [3]; [6]) | final OD 580 ([4]; sulphate as electron acceptor) | initial OD 580 ([4]; sulphate as electron acceptor) | final OD 580 [4, 6] | initial OD 580 [4, 6] | other results
CC(=O)O [Acetate] | 0.0904 and 0.0812 | 0.0671 and 0.0771 | 0.4 mM and 0.3 mM |  |  |  |  |  |  |  |  |  |  | 
CCCCCCCCCCCCCCCC [C16, hexadecane] |  |  |  |  |  |  |  |  |  |  |  |  |  | sulphide production (OD 480) 0 d (strain L-3 [2]): 0.6 mM and 0.5 mM and 0.9 mM; sulphide production (OD 480) 0 d (Archaeoglobus fulgidus): 0.7 mM and 0.8 mM and 0.9 mM; sulphide production (OD 480) 70 d (Archaeoglobus fulgidus): 1 mM and 0.5 mM and 0.8 mM
O=CO [Formate] | 0.0672 and 0.0759 | 0.0765 and 0.0875 | 0.2 mM and 0.4 mM | 0.0711 and 0.064 | 0.0585 and 0.0634 | 2.5 and 5 | 0.1048 and 0.1186 | 0.1003 and 0.1241 | 3.6 and 2.8 | 0.1 and 0.1157 | 0.0805 and 0.0853 | 0.1218 and 0.1208 | 0.1107 and 0.1183 | ability of the strain L-3 to degrade the substrate (strain L-3 [3]): does not develop; total H2S [4, 7]: 3.6 mM and 5 mM; total H2S [4, 8]: 5.8 mM and 7.4 mM; ability of Archaeoglobus fulgidus to oxidize the substrate [4]: capable of oxidizing
O=C(CO)[C@@H](O)[C@H](O)[C@H](O)CO [Fructose, fructose] | 0.1003 and 0.0893 | 0.0663 and 0.0818 | 0.3 mM |  |  |  |  |  |  |  |  |  |  | HPLC analyses, initial quantity of the substrate (strain L-3 [1]; no increase in biomass or sulphide, explained by isomerization at high temperature): reduction in the initial quantity of the substrate
O=C(O)/C=C/C(=O)O [Fumarate] |  |  |  | 0.1085 and 0.0899 | 0.0606 and 0.062 | 2.5 and 3.3 | 0.1431 and 0.1137 | 0.1083 and 0.0796 | 3.2 and 2.5 | 0.1122 and 0.14 | 0.0759 and 0.085 | 0.1399 and 0.1535 | 0.1085 and 0.117 | ability of the strain L-3 to degrade the substrate (strain L-3 [3]): capable of degrading; total H2S [4, 7]: 2.4 mM and 3.1 mM; total H2S ([4]; sulphate as electron acceptor, unit from b116, listed as fumarate): ≤ 3.1 mM; total H2S [4, 8]: 5.1 mM and 6.5 mM; total H2S ([4]; thiosulphate as electron acceptor, unit from b116, listed as fumarate): 6.5 mM; ability of Archaeoglobus fulgidus to oxidize the substrate [4]: capable of oxidizing
c1ccc2ccccc2c1 [Naphthalene, naphthalene] |  |  |  |  |  |  |  |  |  |  |  |  |  | sulphide production (OD 480) 0 d (strain L-3 [2]): 0.8 mM and 0.6 mM; sulphide production (OD 480) 10 d (strain L-3 [2]; 10 d): 0.4 mM and 0.3 mM and 0.6 mM; sulphide production (OD 480) 45 d (strain L-3 [2]): 0.9 mM and 1 mM and 0.8 mM; sulphide production (OD 480) 60 d (strain L-3 [2]): 0.6 mM and 0.5 mM; sulphide production (OD 480) 70 d (strain L-3 [2]): 1.7 mM and 1.3 mM and 1.1 mM; H2S (strain L-3 [2]; [9]): 1.3 mM and 1.1 mM; sulphide production (OD 480) 0 d (A. fulgidus; 0 d): 0.2 mM; sulphide production (OD 480) 8 d (A. fulgidus; 8 d): 0.8 mM and 0.4 mM and 0.5 mM; sulphide production (OD 480) 0 d (Archaeoglobus fulgidus): 0.8 mM; sulphide production (OD 480) 10 d (Archaeoglobus fulgidus): 0.4 mM and 0.6 mM and 0.8 mM; sulphide production (OD 480) 45 d (Archaeoglobus fulgidus; 45 d): 0.8 mM and 1.1 mM and 1.4 mM; sulphide production (OD 480) 60 d (Archaeoglobus fulgidus): 0.7 mM and 1.2 mM; sulphide production (OD 480) 70 d (Archaeoglobus fulgidus): 1.3 mM and 1.7 mM; H2S (Archaeoglobus fulgidus; [9]): 1.3 mM and 1.7 mM; ΔS tf-ti (Archaeoglobus fulgidus): 0.5 mM and 0.9 mM; sulphide production (OD 480) 0 d (strain L-3 [5]; 0 d): 0.2 mM (2×) and 0.3 mM; sulphide production (OD 480) 8 d (strain L-3 [5]; 8 d): 0.5 mM and 0.4 mM and 0.6 mM; sulphide production (OD 480) 22 d (strain L-3 [5]; 22 d): 0.9 mM and 0.5 mM and 0.8 mM; sulphide production (OD 480) 45 d (strain L-3 [5]; 45 d): 0.9 mM and 0.7 mM and 1.3 mM; ΔS tf-ti (strain L-3 [5]; final minus initial sulphide): 0.7 mM and 0.5 mM and 1 mM
c1ccc2c(c1)ccc1ccccc12 [Phenanthrene, phenanthrene] |  |  |  |  |  |  |  |  |  |  |  |  |  | sulphide production (OD 480) 45 d (strain L-3 [2]): 0.5 mM and 1 mM and 0.8 mM; sulphide production (OD 480) 60 d (strain L-3 [2]): 0.4 mM and 0.5 mM and 0.3 mM; sulphide production (OD 480) 70 d (strain L-3 [2]): 0.5 mM and 0.6 mM and 0.8 mM; ΔS tf-ti (strain L-3 [2]; final minus initial sulphide): ≤ 0.5 mM; sulphide production (OD 480) 10 d (Archaeoglobus fulgidus): 1.1 mM and 0.8 mM and 1.4 mM; sulphide production (OD 480) 60 d (Archaeoglobus fulgidus): 0.8 mM and 0.5 mM; ΔS tf-ti (Archaeoglobus fulgidus): ≤ 0.5 mM
CCC(=O)O [Propionate, propionate] | 0.0871 and 0.072 | 0.0669 and 0.0717 | 0.3 mM |  |  |  |  |  |  |  |  |  |  | 
CC(=O)C(=O)O [Pyruvate, pyruvate] | 0.1315 and 0.1758 | 0.067 and 0.0713 |  | 0.0958 and 0.0944 | 0.0603 and 0.0636 | 3.5 and 3.3 | 0.1161 and 0.0863 | 0.0785 and 0.0911 | 4 | 0.1643 and 0.1575 | 0.1281 and 0.1377 | 0.3668 and 0.3489 | 0.1368 and 0.1351 | H2S (480 nm) (strain L-3 [1]): 5.2 mM; total H2S ([4]; sulphate as electron acceptor): 10.3 mM and 7.3 mM
